For 27 compounds, IC50 cytotoxicity (DAPI nuclear signal decrease) and IC50 results are on record in PubChem BioAssay AID651630 (Sanford-Burnham Center for Chemical Genomics, 2012).

Experiment [1] has as its system DAPI. Briefly: TAG lipid buildup inhibition with viability readout – cell-based, panel, Nile Red and DAPI fluorescence, H9c2, dose response (AID 651630).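 Note: cells exposed to compound overnight before fixation and staining.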 The note with it: H9c2 cells, DAPI nuclear fluorescence (cytotoxicity counter-readout), oleic acid.
In experiment [2] the test system is TAG. The experiment is described as above. The note with it: H9c2 cells, Nile Red TAG fluorescence, oleic acid.

Molecules are shown by their SMILES. The source made the active and inactive calls.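 Rule for the calls: active = lipid-stain IC50 at or below a set limit, with nuclear-stain toxicity IC50 at least five times higher; inactive = the rest.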

As a reminder, the IC50 is the concentration needed to halve the response being measured. As to `CCCCCc1cc(=O)oc2c(C(CCN(CC)CC)c3ccc(N(C)C)cc3)c(OC)cc(OC)c12` (stereo not given), the IC50 cytotoxicity (DAPI nuclear signal decrease) in experiment [1] (mean of runs) was > 25 µM (inactive); in experiment [1] (run 1) it was > 25 µM; in experiment [1] (run 2), > 25 µM. Further, the IC50 in experiment [2] (run 1) was > 25 µM; in experiment [2] (run 2), 17.5 µM.

For `COC(=O)[C@@]1(Cc2ccc(F)cc2)[C@H]2c3cc(C(=O)N4CCCC4)n(CCCNc4ncc(C(F)(F)F)cc4Cl)c3C[C@H]2CN1C(=O)c1ccccc1`, the IC50 cytotoxicity (DAPI nuclear signal decrease) in experiment [1] (run 1) and in experiment [1] (run 2) was > 25 µM each time. For the same compound, the IC50 in experiment [2] (mean of runs) was 2.58 µM; in experiment [2] (run 1) it was 2.76 µM; in experiment [2] (run 2) it was 2.41 µM.

With `Cn1nc(-c2ccc(Cl)cc2)c2cc(C(=O)NC3CC3)sc21`, the IC50 cytotoxicity (DAPI nuclear signal decrease) was > 25 µM (inactive) in experiment [1] (mean of runs), > 25 µM in experiment [1] (run 1) and > 25 µM in experiment [1] (run 2). For the same compound, the IC50 in experiment [2] (mean of runs) is 10.8 µM; in experiment [2] (run 1), 13 µM; in experiment [2] (run 2), 8.58 µM.

`NC(=O)N/N=C/c1c(Sc2nnnn2-c2ccccc2)nc2ccccn2c1=O`: the IC50 cytotoxicity (DAPI nuclear signal decrease) was 17.2 µM (inactive) in experiment [1] (mean of runs), 15.7 µM in experiment [1] (run 1) and 18.7 µM in experiment [1] (run 2). Further, the IC50 is 10.7 µM in experiment [2] (mean of runs), 15.3 µM in experiment [2] (run 1) and 6.11 µM in experiment [2] (run 2).

For the compound `C[C@@H]1CN([C@H](C)CO)C(=O)c2c(c3ccccc3n2C)-c2ccccc2CO[C@H]1CN(C)Cc1ccc(-c2ccccc2)cc1`, the IC50 cytotoxicity (DAPI nuclear signal decrease) is > 25 µM (inactive) in experiment [1] (mean of runs), > 25 µM in experiment [1] (run 1) and > 25 µM in experiment [1] (run 2). Moreover, the half-inhibitory concentration (IC50) in experiment [2] (mean of runs) is 14.9 µM; in experiment [2] (run 1) it was 9.62 µM; in experiment [2] (run 2), 20.1 µM.

For `CCOC(=O)c1sc2nc(CSc3ccccc3)nc(NCCN(C)C)c2c1C`, the IC50 cytotoxicity (DAPI nuclear signal decrease) in experiment [1] (mean of runs) is > 25 µM (inactive); in experiment [1] (run 1) it was > 25 µM; in experiment [1] (run 2) it was > 25 µM. The IC50 in experiment [2] (mean of runs) is 13.7 µM; in experiment [2] (run 1), 12.4 µM; in experiment [2] (run 2), 14.9 µM.

As to `NC(Cc1ccc(C(F)(F)F)cc1)c1csc(Nc2nncc3ccccc23)n1` (stereo not given), the IC50 cytotoxicity (DAPI nuclear signal decrease) is 21.4 µM (inactive) in experiment [1] (mean of runs), 21.5 µM in experiment [1] (run 1) and 21.3 µM in experiment [1] (run 2). Besides, the values for the IC50 in experiment [2] (mean of runs), in experiment [2] (run 1) and in experiment [2] (run 2) were > 25 µM (inactive), > 25 µM and > 25 µM, respectively.

As for `S=C(N/N=C/c1cccs1)NC1CC2CCC1C2` (stereo not given), the IC50 cytotoxicity (DAPI nuclear signal decrease) in experiment [1] (mean of runs) is > 25 µM (inactive); in experiment [1] (run 1), > 25 µM; in experiment [1] (run 2), > 25 µM. In addition, the IC50 in experiment [2] (mean of runs) was 8.53 µM; in experiment [2] (run 1) it was 4.71 µM; in experiment [2] (run 2), 12.3 µM.

Turning to `Cc1ccc2[nH]c(-c3ccccc3)cc(=O)c2c1`, the IC50 cytotoxicity (DAPI nuclear signal decrease) in experiment [1] (mean of runs) is > 25 µM (inactive); in experiment [1] (run 1), > 25 µM; in experiment [1] (run 2) it was > 25 µM. The IC50 in experiment [2] (mean of runs) is > 25 µM (inactive); in experiment [2] (run 1), > 25 µM; in experiment [2] (run 2), > 25 µM.

`CC(C)N1CSC(=S)N(Cc2ccccc2)C1`: the values for the IC50 cytotoxicity (DAPI nuclear signal decrease) in experiment [1] (mean of runs), in experiment [1] (run 1) and in experiment [1] (run 2) were > 25 µM (inactive), > 25 µM and > 25 µM, respectively. The IC50 is > 25 µM (inactive) in experiment [2] (mean of runs), > 25 µM in experiment [2] (run 1) and > 25 µM in experiment [2] (run 2).

Take `C[C@H](O)C#Cc1ccc2c(c1)O[C@@H](CN(C)Cc1ccc(-c3ccccc3)cc1)[C@H](C)CN([C@@H](C)CO)S2(=O)=O`: the IC50 cytotoxicity (DAPI nuclear signal decrease) in experiment [1] (mean of runs) was > 25 µM (inactive); in experiment [1] (run 1), > 25 µM; in experiment [1] (run 2), > 25 µM. Moreover, the IC50 in experiment [2] (run 1) was > 25 µM; in experiment [2] (run 2), 17.9 µM.

As to `Nc1ccccc1Nc1cccc(C(F)(F)F)c1`, the IC50 cytotoxicity (DAPI nuclear signal decrease) in experiment [1] (mean of runs) is > 25 µM (inactive); in experiment [1] (run 1), > 25 µM; in experiment [1] (run 2), > 25 µM. Further, the IC50 was 11.2 µM in experiment [2] (mean of runs), 9.51 µM in experiment [2] (run 1) and 12.9 µM in experiment [2] (run 2).

In the case of `CCN(CC)CCCN(C(=O)c1cccs1)c1nc(-c2ccc(OC)cc2)cs1`, the IC50 cytotoxicity (DAPI nuclear signal decrease) is > 25 µM (inactive) in experiment [1] (mean of runs), > 25 µM in experiment [1] (run 1) and > 25 µM in experiment [1] (run 2). Further, the figures for the IC50 in experiment [2] (mean of runs), in experiment [2] (run 1) and in experiment [2] (run 2) were 10.3 µM, 10.5 µM and 10 µM, respectively.

As to `Cc1nc(C(=O)Nc2ccccc2Cl)cc2c1[nH]c1ccccc12`, the IC50 cytotoxicity (DAPI nuclear signal decrease) in experiment [1] (run 1) and in experiment [1] (run 2) was > 25 µM each time. The IC50 is 3.06 µM in experiment [2] (mean of runs), 2.87 µM in experiment [2] (run 1) and 3.24 µM in experiment [2] (run 2).

Take `CCOc1cc2c(cc1O)CCC1C2CCC2(C)C(O)CCC12` (stereo not given): the IC50 cytotoxicity (DAPI nuclear signal decrease) is > 25 µM (inactive) in experiment [1] (mean of runs), > 25 µM in experiment [1] (run 1) and > 25 µM in experiment [1] (run 2). For the same compound, the IC50 in experiment [2] (run 1) was 17.4 µM; in experiment [2] (run 2), > 25 µM.

In the case of `NC(N)=Nc1ccc(C=C2C=Cc3ccccc32)cc1`, the IC50 cytotoxicity (DAPI nuclear signal decrease) is 22.8 µM (inactive) in experiment [1] (mean of runs), 21.2 µM in experiment [1] (run 1) and 24.5 µM in experiment [1] (run 2). For the same compound, the 50% inhibitory concentration (IC50) in experiment [2] (mean of runs) is 11.8 µM; in experiment [2] (run 1) it was 12.6 µM; in experiment [2] (run 2), 11.1 µM.

Turning to `COc1ccc([C@H]2CC(=O)C=C(c3ccc(OC)cc3OC)C2)cc1`, the IC50 cytotoxicity (DAPI nuclear signal decrease) in experiment [1] (mean of runs) is > 25 µM (inactive); in experiment [1] (run 1), > 25 µM; in experiment [1] (run 2), > 25 µM. Besides, the IC50 in experiment [2] (mean of runs) was > 25 µM (inactive); in experiment [2] (run 1) it was > 25 µM; in experiment [2] (run 2) it was > 25 µM.

Consider `CC(C)(C)N1C(=O)[C@H]2[C@@H](c3ccc(Br)cc3)N3C(=O)N(c4ccc(Br)cc4)C(=O)[C@@]3(Cc3ccccc3)[C@H]2C1=O`, for which the figures for the IC50 cytotoxicity (DAPI nuclear signal decrease) in experiment [1] (mean of runs), in experiment [1] (run 1) and in experiment [1] (run 2) were > 25 µM (inactive), > 25 µM and > 25 µM, respectively. Further, the results for the IC50 in experiment [2] (mean of runs), in experiment [2] (run 1) and in experiment [2] (run 2) were 17.2 µM (inactive), 18.3 µM and 16 µM, respectively.

On to `CCN1CCN(Cc2ccc(NC(=O)c3cc(NC(=O)C(=O)c4c[nH]c5ccccc45)cc(OC)c3)cc2C(F)(F)F)CC1`, for which the IC50 cytotoxicity (DAPI nuclear signal decrease) is 23.4 µM (inactive) in experiment [1] (mean of runs), 23.4 µM in experiment [1] (run 1) and 23.4 µM in experiment [1] (run 2). Also, the half-inhibitory concentration (IC50) in experiment [2] (mean of runs) is 5.76 µM; in experiment [2] (run 1), 5.58 µM; in experiment [2] (run 2) it was 5.93 µM.

`CCO[C@@H]1OC(C(=O)N2CCN(Cc3ccccc3)CC2)=C[C@H](c2ccc(C(F)(F)F)cc2)[C@H]1CCCO`: the IC50 cytotoxicity (DAPI nuclear signal decrease) is > 25 µM (inactive) in experiment [1] (mean of runs), > 25 µM in experiment [1] (run 1) and > 25 µM in experiment [1] (run 2). The IC50 is 11.4 µM in experiment [2] (mean of runs), 11.2 µM in experiment [2] (run 1) and 11.6 µM in experiment [2] (run 2).

In the case of `O=C(/C=C/Sc1ccc(C(F)(F)F)cn1)c1ccccc1`, the results for the IC50 cytotoxicity (DAPI nuclear signal decrease) in experiment [1] (run 1) and in experiment [1] (run 2) were 21 µM and > 25 µM, respectively. Moreover, the IC50 in experiment [2] (mean of runs) was > 25 µM (inactive); in experiment [2] (run 1) it was > 25 µM; in experiment [2] (run 2) it was > 25 µM.

Take `CN(C)CCCNC(=O)CC1C[C@H](C(=O)N2CCCCC2)[C@@]2(CCc3ccccc3)c3[nH]c4ccccc4c3CCN2C1=O` (stereo not given in full): the IC50 cytotoxicity (DAPI nuclear signal decrease) in experiment [1] (mean of runs) was > 25 µM (inactive); in experiment [1] (run 1), > 25 µM; in experiment [1] (run 2), > 25 µM. Besides, the IC50 in experiment [2] (mean of runs) was 20 µM (inactive); in experiment [2] (run 1), 23.2 µM; in experiment [2] (run 2), 16.8 µM.

In the case of `CN(Cc1ccc(Cl)cc1)C(=O)CCl`, the values for the IC50 cytotoxicity (DAPI nuclear signal decrease) in experiment [1] (mean of runs), in experiment [1] (run 1) and in experiment [1] (run 2) were > 25 µM (inactive), > 25 µM and > 25 µM, respectively. The IC50 is > 25 µM (inactive) in experiment [2] (mean of runs), > 25 µM in experiment [2] (run 1) and > 25 µM in experiment [2] (run 2).

Take `Cc1ccc(/C=N/NC(=O)c2cc(-c3cccnc3)nc3ccccc23)cc1`: the IC50 cytotoxicity (DAPI nuclear signal decrease) was > 25 µM (inactive) in experiment [1] (mean of runs), > 25 µM in experiment [1] (run 1) and > 25 µM in experiment [1] (run 2). In addition, the IC50 in experiment [2] (mean of runs) was > 25 µM (inactive); in experiment [2] (run 1), > 25 µM; in experiment [2] (run 2), > 25 µM.

With `COc1cc(Cn2c(-c3nonc3N)nc3ccccc32)ccc1C`, the IC50 cytotoxicity (DAPI nuclear signal decrease) in experiment [1] (mean of runs) is > 25 µM (inactive); in experiment [1] (run 1), > 25 µM; in experiment [1] (run 2), > 25 µM. Also, the IC50 was 24.4 µM in experiment [2] (run 1) and > 25 µM in experiment [2] (run 2).

Regarding `CNC(=O)c1ccc(-c2sc3nc(N4CCOCC4)c4c(c3c2N)CC(C)(C)OC4)o1`, the IC50 cytotoxicity (DAPI nuclear signal decrease) in experiment [1] (mean of runs) was > 25 µM (inactive); in experiment [1] (run 1) it was > 25 µM; in experiment [1] (run 2), > 25 µM. The IC50 in experiment [2] (mean of runs) is 9.7 µM; in experiment [2] (run 1), 13.1 µM; in experiment [2] (run 2), 6.33 µM.

`COc1cc(-c2cc(NC=O)c3ncc(-c4cccc(C(=O)N(C)C)c4)n3c2)cc(OC)c1OC`: the IC50 cytotoxicity (DAPI nuclear signal decrease) in experiment [1] (mean of runs) is > 25 µM (inactive); in experiment [1] (run 1) it was > 25 µM; in experiment [1] (run 2), > 25 µM. The results for the IC50 in experiment [2] (mean of runs), in experiment [2] (run 1) and in experiment [2] (run 2) were 8.89 µM, 5.06 µM and 12.7 µM, respectively.
